# Reference: patent US20210122763A1, “OGA INHIBITOR COMPOUNDS” (Janssen Pharmaceutica NV, priority 2018, published 2021)
# Assays:
# [1] = molecular target: T1, recombinant human Meningioma Expressed Antigen 5 (MGEA5), also referred to as O-GlcNAcase (OGA) (Homo sapiens, UniProt O60502); test: OGA biochemical assay (inhibition of FM-GlcNAc hydrolysis, fluorescence); conditions: for Emax: read-out: Enzymatic Emax (%); for IC50: read-out: Enzymatic hOGA, pIC50 (converted)
# T1 construct: Full length OGA enzyme was purchased at OriGene (cat #TP322411); purchased OriGene TP322411
# T1 sequence (O60502 1-916): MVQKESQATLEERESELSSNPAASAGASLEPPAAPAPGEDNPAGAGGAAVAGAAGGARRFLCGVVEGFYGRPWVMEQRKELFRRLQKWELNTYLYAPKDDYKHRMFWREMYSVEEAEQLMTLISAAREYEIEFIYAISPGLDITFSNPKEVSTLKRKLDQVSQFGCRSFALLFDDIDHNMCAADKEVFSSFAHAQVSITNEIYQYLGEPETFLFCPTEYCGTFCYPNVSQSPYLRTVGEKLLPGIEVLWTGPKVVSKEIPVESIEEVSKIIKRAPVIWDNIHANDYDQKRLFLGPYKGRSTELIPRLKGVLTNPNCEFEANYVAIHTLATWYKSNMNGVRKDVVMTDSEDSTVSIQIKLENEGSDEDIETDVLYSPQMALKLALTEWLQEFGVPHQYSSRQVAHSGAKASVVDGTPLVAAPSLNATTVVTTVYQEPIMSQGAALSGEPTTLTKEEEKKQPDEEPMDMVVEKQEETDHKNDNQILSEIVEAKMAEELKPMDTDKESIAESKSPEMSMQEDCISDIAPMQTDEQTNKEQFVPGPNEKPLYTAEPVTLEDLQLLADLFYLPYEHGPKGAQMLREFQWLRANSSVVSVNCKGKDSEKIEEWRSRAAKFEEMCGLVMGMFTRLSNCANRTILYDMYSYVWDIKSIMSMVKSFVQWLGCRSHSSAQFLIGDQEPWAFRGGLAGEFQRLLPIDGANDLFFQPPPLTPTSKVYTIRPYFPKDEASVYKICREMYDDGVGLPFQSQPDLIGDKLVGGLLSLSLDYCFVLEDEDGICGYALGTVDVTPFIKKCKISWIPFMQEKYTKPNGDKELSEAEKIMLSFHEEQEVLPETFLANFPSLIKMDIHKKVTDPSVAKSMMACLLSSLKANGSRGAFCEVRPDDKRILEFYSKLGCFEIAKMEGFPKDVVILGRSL
# Text: The assay is based on the inhibition of the hydrolysis of fluorescein mono-B-D-N-Acetyl-Glucosamine (FM-GcNAc) (Mariappa et al. 2015, Biochem J470:255) by the recombinant human Meningioma Expressed Antigen 5 (MGEA5), also referred to as O-GlcNAcase (OGA). The hydrolysis FM-GlcNAc (Marker Gene technologies, cat #M1485) results in the formation of B-D-N-glucosamineacetate and fluorescein. The fluorescence of the latter can be measured at excitation wavelength 485 nm and emission wavelength 538 nm. An increase in enzyme activity results in anincrease in fluorescence signal. Full length OGA enzyme was purchased at OriGene (cat #TP322411). The enzyme was stored in 25 mM Tris.HCl, pH 7.3, 100 mM glycine, 10% glycerol at −20° C. Thiamet G and GlcNAcStatin were tested as reference compounds (Yuzwa et al. 2008 Nature Chemical Biology 4:483; Yuzwa et al. 2012 Nature Chemical Biology 8:393). The assay was performed in 200 mM Citrate/phosphate buffer supplemented with 0.005% Tween-20. 35.6 g Na2HPO4 2H2O (Sigma, #C0759) were dissolved in 1 L water to obtain a 200 mM solution. 19.2 g citric acid (Merck, #1.06580) was dissolved in 1 L water to obtain a 100 mM solution. pH of the sodiumphosphate solution was adjusted with the citric acid solution to 7.2. The buffer to stop the reaction consists of a 500 mM Carbonate buffer, pH 11.0. 734 mg FM-GlcNAc were dissolved in 5.48 mL DMSO to obtain a 250 mM solution and was stored at −20° C. OGA was used at a 2 nM concentration and FM-GcNAc at a 100 uM final concentration. Dilutions were prepared in assay buffer.
# 50 nl of a compound dissolved in DMSO was dispensed on Black Proxiplate™ 384 Plus Assay plates (Perkin Elmer, #6008269) and 3 μl fl-OGA enzyme mix added subsequently. Plates were pre-incubated for 60 min at room temperature and then 2 μl FM-GlcNAc substrate mix added.
# Plates were briefly centrifuged for 1 min at 1000 rpm and incubate at room temperature for 6 h. To stop the reaction 5 μl STOP buffer were added and plates centrifuge again 1 min at 1000 rpm. Fluorescence was quantified in the Thermo Scientific Fluoroskan Ascent or the PerkinElmer EnVision with excitation wavelength 485 nm and emission wavelength 538 nm.
# For analysis a best-fit curve is fitted by a minimum sum of squares method. From this an IC50 value and Hill coefficient was obtained. High control (no inhibitor) and low control (saturating concentrations of standard inhibitor) were used to define the minimum and maximum values.
# [2] = molecular target: T2, OGA (Homo sapiens, UniProt O60502); test: OGA cellular assay (ICC detection of O-GlcNAcylated proteins in HEK293 cells inducible for P301L mutant human Tau); format: cell-based; conditions: 6 hours incubation; for Emax: HEK293, HEK293 cells inducible for P301L mutant human Tau; for Emax / Cellular Emax (%): maximum = Thiamet G 200 uM; for EC50 / Cellular Emax (%): HEK293 cells inducible for P301L mutant human Tau; for EC50: read-out: Cellular hOGA, pEC50 (converted)
# T2 construct: HEK293 cells inducible for P301L mutant human Tau (isoform 2N4R) were established at Janssen; endogenous in cells; host or cells: HEK293 cells inducible for P301L mutant human Tau (2N4R)
# T2 sequence (O60502 1-916): T1 sequence (O60502 1-916)
# Experimental: HEK293 cells inducible for P301L mutant human Tau (isoform 2N4R) were established at Janssen. Thiamet-G was used for both plate validation (high control) and as reference compound (reference EC50 assay validation). OGA inhibition is evaluated through the immunocytochemical (ICC) detection of O-GlcNAcylated proteins by the use of a monoclonal antibody (CTD110.6; Cell Signaling, #9875) detecting 0-GlcNAcylated residues as previously described (Dorfmueller et al. 2010 Chemistry & biology, 17:1250). Inhibition of OGA will result in an increase of 0-GlcNAcylated protein levels resulting in an increased signal in the experiment. Cell nuclei are stained with Hoechst to give a cell culture quality control and a rough estimate of immediate compounds toxicity, if any. ICC pictures are imaged with a Perkin Elmer Opera Phenix plate microscope and quantified with the provided software Perkin Elmer Harmony 4.1.
# Cells were propagated in DMEM high Glucose (Sigma, #D5796) following standard procedures. 2 days before the cell assay cells are split, counted and seeded in Poly-D-Lysine (PDL) coated 96-wells (Greiner, #655946) plate at a cell density of 12,000 cells per cm^2 (4,000 cells per well) in 100p of Assay Medium (Low Glucose medium is used to reduce basal levels of GlcNAcylation) (Park et al. 2014 The Journal of biological chemistry 289:13519). At the day of compound test medium from assay plates was removed and replenished with 90 μl of fresh Assay Medium. 10 μl of compounds at a 10 fold final concentration were added to the wells. Plates were centrifuged shortly before incubation in the cell incubator for 6 hours. DMSO concentration was set to 0.2%. Medium is discarded by applying vacuum. For staining of cells medium was removed and cells washed once with 100 μl D-PBS (Sigma, #D8537). From next step onwards unless other stated assay volume was always 50p and incubation was performed without agitation and at room temperature. Cells were fixed in 50 μl of a 4% paraformaldehyde (PFA, Alpha aesar, #043368) PBS solution for 15 minutes at room temperature. […] Before analysis samples were washed 2 times manually for 5 minutes in ICC base buffer.
# Imaging is performed using Perkin Elmer Phenix Opera using a water 20× objective and recording 9 fields per well. Intensity readout at 488 nm is used as a measure of O-GlcNAcylation level of total proteins in wells. To assess potential toxicity of compounds nuclei were counted using the Hoechst staining. IC50-values are calculated using parametric non-linear regression model fitting. As a maximum inhibition Thiamet G at a 200 uM concentration is present on each plate. In addition, a concentration response of Thiamet G is calculated on each plate.
Structure (SMILES),Emax [1] [%],IC50 [1] [nM],Emax [2] [%],EC50 [2] [nM],Enzymatic Emax (%) [1] [%],Cellular Emax (%) [2] [%]
CC(c1ccc2c(n1)OCCO2)N1CCC(Oc2ccnc(C#N)c2)CC1 (centres unmarked) [Compound 51],100,63.1,60,631,–,–
Cc1cc(OC2CCN(C(C)c3nc4nc(C)sc4cc3F)CC2)cc(C)n1 (centres unmarked) [Compound 32],100,15.8,72,79.4,–,–
Cc1cc(C(F)(F)F)cc(OC2CCN(C(C)c3nc4c(cc3F)OCCO4)CC2)n1 (centres unmarked) [Compound 48],98,20,84,251,–,–
Cc1cc(OC2CCN(C(C)c3ccc4c(n3)OCC4)CC2)cc(C)n1 (centres unmarked) [Compound 60],95,39.8,84,117,–,–
Cc1cc(O[C@H]2CCN(C(C)c3ccc4c(n3)OCCO4)C[C@H]2C)cc(C)n1 (some centres unmarked) [Compound 28],101,10,68,126,–,–
"Cc1cc(OC2CCN([C@@H](C)c3ccc4c(n3)OCC4)CC2)cc(C)n1 (single isomer, unassigned) [Compound 62]",90,1000,6,> 1000,–,–
Cc1cc(OC2CCN(C(C)c3ccc4sc(C)nc4n3)CC2)cc(C)n1 (centres unmarked) [Compound 7],100,63.1,71,398,–,–
Cc1cc(OC2CCN(C(C)c3cc4nc(C)sc4cc3F)CC2)nc(C)n1 (centres unmarked) [Compound 38],101,15.8,64,251,–,–
"Cc1cc(OC2CCN([C@H](C)c3nc4c(cc3F)OCCO4)CC2)nc(C)n1 (single isomer, unassigned) [Compound 55]",97,200,14,> 1000,–,–
Cc1ccnc(OC2CCN(C(C)c3nc4c(cc3F)OCCO4)CC2)c1 (centres unmarked) [Compound 161],97,20,83,158,–,–
COc1nccnc1OC1CCN(C(C)c2ccc3c(n2)OCCO3)CC1 (centres unmarked) [Compound 108],101,631,15,> 1000,–,–
Cc1cc(COC2CCN(C(C)c3nc4nc(C)sc4cc3F)CC2)cc(C)n1 (centres unmarked) [Compound 160],96,12.6,87,39.8,–,–
Cc1cnc(OC2CCN(C(C)c3nc4c(cc3F)OCCO4)CC2)c(C)n1 (centres unmarked) [Compound 84],101,15.8,73,316,–,–
"COc1cc(OC2CCN(C(C)c3ccc4c(n3)OCCO4)CC2)cc(C)n1 (single isomer, unassigned) [Compound 54]",–,12.6,–,126,100,83
"COc1cc(OC2CCN(C(C)c3ccc4sc(C)nc4n3)CC2)cc(C)n1 (single isomer, unassigned) [Compound 23]",–,3980,–,> 1000,59,−8
CC(c1nc2c(cc1F)OCCO2)N1CCC(Oc2ccc(C#N)cn2)CC1 (centres unmarked) [Compound 49],99,20,81,288,–,–
COc1ccc(OC2CCN(C(C)c3ccc4c(n3)OCCO4)CC2)nc1 (centres unmarked) [Compound 99],98,158,34,> 1000,–,–
Cc1nccnc1OC1CCN(C(C)c2nc3c(cc2F)OCCO3)CC1 (centres unmarked) [Compound 111],98,50.1,77,200,–,–
Cc1cc(OC2CCN(C(C)c3ccc4c(n3)OCCO4)CC2)ccn1 (centres unmarked) [Compound 45],96,100,59,631,–,–
Cc1cncc(OC2CCN(C(C)c3ccc4c(n3)OCCO4)CC2)c1 (centres unmarked) [Compound 47],99,63.1,67,316,–,–
Cc1cc(OC2CCN(C(C)c3ccc4c(n3)OCCO4)CC2)ncc1C#N (centres unmarked) [Compound 101],94,100,53,501,–,–
Cc1cc(OC2CCN(C(C)c3cc4nc(C)sc4cc3F)CC2)cc(C)n1 (centres unmarked) [Compound 8],100,15.8,89,63.1,–,–
Cc1cc(OC2CCN(C(C)c3ccc4c(c3)OCCO4)CC2)cc(C)n1 (centres unmarked) [Compound 25],96,501,56,631,–,–
